Results published in US7193085B2, “Acid Red 82 in mixtures” (Lanxess Deutschland GmbH, priority 2002, dated 2007).

Test: Solubility of the dye
Assay type: physicochemical

- solubility compared with Acid Red 82: less than that of Acid Red 82
Structure (SMILES): Cc1ccc(Nc2ccc3c4c(cc(=O)n3C)-c3ccccc3C(=O)c24)c(S(=O)(=O)[O-])c1.[Na+] [Acid Red 80, C. I. Acid Red 80]
